Source: PubChem BioAssay AID1552 (Sanford-Burnham Center for Chemical Genomics, 2009)
Activity calls are given as the source filed them. No rule for the calls is given here.

What follows are molecules tested against Ubiquitin-conjugating enzyme E2 N (Homo sapiens) (UniProt P61088) (assay: UBE2N binders by NMR, biophysical, purified protein (AID 1552)). Details: NMR binding to purified UBE2N.
Sequence of Ubiquitin-conjugating enzyme E2 N (Homo sapiens) (P61088 whole entry, looked up): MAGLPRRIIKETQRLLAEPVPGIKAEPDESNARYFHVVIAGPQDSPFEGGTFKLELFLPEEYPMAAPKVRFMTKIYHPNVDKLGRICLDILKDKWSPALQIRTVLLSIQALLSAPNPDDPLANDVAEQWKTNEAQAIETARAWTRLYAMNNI

SMILES | Kd
CC(=O)O[C@H]1C[C@@H](OC(C)=O)C(C)(C)C2C[C@@H](OC(C)=O)[C@@]3(C)C4=CC(=O)O[C@@H](c5ccoc5)[C@]4(C)CCC3[C@]21C (stereo not given in full) | > 4 mM (inactive)
CCOC(=O)CC1NCCNC1=O (stereo not given) | > 4 mM (inactive)
O=c1oc2ccccc2cc1O | > 4 mM (inactive)
S=c1nc2c(n[nH]1)[nH]c1ccccc12 | > 4 mM (inactive)
COc1ccccc1NC(=O)NC(N)=O | > 4 mM (inactive)
O=C(Nc1ccc2c(c1)OCCO2)c1c(F)cccc1F | > 4 mM (inactive)
Cc1cccnc1NC1=NCC(C)S1 (stereo not given) | > 4 mM (inactive)
Cc1cc(NC(=O)NCCCSc2nncn2C)no1 | > 4 mM (inactive)
COC(=O)C1CCN(c2ccc(Cl)nn2)CC1 | > 4 mM (inactive)
CC(O)C(=O)N/N=C/c1cccs1 (stereo not given) | > 4 mM (inactive)
COc1ccc2c(c1)OC/C(=C/c1ccc(O)c(O)c1)C2=O | > 4 mM (inactive)
O=C1CN(C(=O)c2ccccc2)c2ccccc2N1 | > 4 mM (inactive)
Cc1nc2nc(Cc3ccccc3)nn2c(C)c1Cl | > 4 mM (inactive)
CC(=O)N1N=C(N)SC1c1cccnc1 (stereo not given) | > 4 mM (inactive)
CNc1nc(C)nc(-n2nc(C)cc2C)n1 | > 4 mM (inactive)
CC(=O)CC1(O)C(=O)Nc2ccc(Br)cc21 (stereo not given) | > 4 mM (inactive)
O=c1ccc(=O)n(CN2CCc3ccccc3C2)[nH]1 | > 4 mM (inactive)
O=C1NC(=O)/C(=C/c2ccc(O)cc2)N1 | > 4 mM (inactive)
O=C(c1ccco1)N1CCN(c2ccc(Cl)cc2)CC1 | > 4 mM (inactive)
Nc1cc(C(=O)N2CCCC2)cc(C(=O)N2CCCC2)c1 | > 4 mM (inactive)

SMILES | Kd
CC(=O)NC1(NC(C)=O)CCN(C)CC1 | > 4 mM (inactive)
O=c1nc(NCc2ccco2)sc2ncccc12 | > 4 mM (inactive)
O=C1CSC2=NCCCN12 | > 4 mM (inactive)
O=C(c1cc2ccccc2o1)N1CCCCCC1 | > 4 mM (inactive)
COc1ccc(C(=O)/C=C/c2ccccc2)cc1 | > 4 mM (inactive)
O=C(O)Cn1c(=O)sc2ccccc21 | > 4 mM (inactive)
O=C(NCCCSc1ncccn1)Nc1ncccn1 | > 4 mM (inactive)
NCCc1cnc[nH]1 | > 4 mM (inactive)
O=c1[nH]c(=S)[nH]c2c1CCC2 | > 4 mM (inactive)
Cn1cccc1C(=O)NS(=O)(=O)c1ccccc1Cl | > 4 mM (inactive)
Cc1nc(-c2cccc(C(=O)O)c2)cs1 | > 4 mM (inactive)
Cc1cc(=O)n2[nH]cnc2n1 | > 4 mM (inactive)
C=C1C([C@]2(C)C(CC(=O)OC)[C@@](C)(COC(C)=O)OC(=O)C[C@@H]2OC(C)=O)[C@@H](OC=O)[C@H](OC(=O)C(OC(C)=O)C(C)CC)[C@@]2(C)[C@H](c3ccoc3)CC(=O)C12O (stereo not given in full) | > 4 mM (inactive)
Cn1cnnc1SCCCNC(=O)Nc1ncccn1 | > 4 mM (inactive)
O=C1NC(=O)C(Cc2ccccc2)C(=O)N1 | > 4 mM (inactive)
NCc1csc(-c2ccccc2)n1 | > 4 mM (inactive)
CNC(=O)C1CCCN(S(C)(=O)=O)C1 (stereo not given) | > 4 mM (inactive)
CCC1(CC)C(=O)N=C(N)NC1=O | > 4 mM (inactive)
Cc1cc(C)nc(NC(N)=NCc2ccco2)n1 | > 4 mM (inactive)
O=C(Nc1ccc2c(c1)OCO2)c1cnn2cccnc12 | > 4 mM (inactive)

SMILES | Kd
Oc1ccc(-n2cncn2)cc1 | > 4 mM (inactive)
CC[C@]12CCCN3CCc4c(n(c5ccccc45)[C@](O)(C(=O)OC)C1)[C@@H]32 | > 4 mM (inactive)
Cc1ccc(C(C)C)cc2c(C)ccc1-2 | > 4 mM (inactive)
CSc1nc(C)c(Oc2ccccc2)c(=O)n1C | > 4 mM (inactive)
O=C(Nc1ccc(Cl)cn1)c1cnn2cccnc12 | > 4 mM (inactive)
O=C(O)c1ccccc1N1CCOCC1 | > 4 mM (inactive)
Cc1nc2sccn2c1C(=O)O | > 4 mM (inactive)
NC(=O)c1cccc(Cl)n1 | > 4 mM (inactive)
O=C(O)c1ccc2ccccc2n1 | > 4 mM (inactive)
CN=C1SC(CC(=O)Nc2ccc(O)cc2)C(=O)N1C (stereo not given) | > 4 mM (inactive)
Cc1nnc(Nc2ccc(S(N)(=O)=O)cc2)[nH]c1=O | > 4 mM (inactive)
COc1cccc(NC(=O)c2cnn(C)c2Cl)c1 | > 4 mM (inactive)
Cc1cc(C)n(CCCC(=O)O)n1 | > 4 mM (inactive)
CN(C)C(=O)N1CCN(C(=O)c2ccco2)CC1 | > 4 mM (inactive)
OCc1ccc2c(c1)OCCO2 | > 4 mM (inactive)
Cc1cc2c(nn1)CCc1nonc1-2 | > 4 mM (inactive)
NC(=O)c1ccsc1NC(=O)c1cccnc1 | > 4 mM (inactive)
COc1ccc(NC(=O)N2CCCCC2)cc1 | > 4 mM (inactive)
NC(=O)CS(=O)(=O)c1ccc2ccccc2c1 | > 4 mM (inactive)
O=C1c2ccccc2C(=O)N1OCc1ccccc1 | > 4 mM (inactive)
